Data published in patent publication US5210193A, “Piperazine derivatives” (American Cyanamid Company, priority 1990, dated 1993).
Converted amounts (≈) assume the structure as drawn. Structures can show the parent of a compound that is named as a salt. Where two headings read alike, the source gives them in different places.

Assays:
Assay in all cases: in vitro antibacterial MIC, agar plate dilution
Type in all cases: cell-based
[1] = test system: Serratia marcescens MOR 84-41; settings: Serratia marcescens, MOR8441, 18 h, 35° C., read-out: MIC
Procedure, shortened: (§1)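 Agar plate dilution on Mueller-Hinton agar, inoculum approximately 10^4 CFU per organism applied with a Steers replicator. MIC (mcg/ml) is the lowest compound concentration inhibiting visible growth after 18 hours at 35° C.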

[2] = test system: Staphylococcus aureus ATTC 29213; settings: 35° C.
Procedure, shortened: as §1

[3] = test system: Enterobacter cloacae MOR 84-30; settings: Enterobacter cloacae, MOR8430, 18 h, 35° C., read-out: MIC
Procedure, shortened: as §1

[4] = test system: Pseudomonas aeruginosa LL-1244; settings: 35° C.
Procedure, shortened: as §1

[5] = test system: Klebsiella pneumoniae CMC 84-31; settings: Klebsiella pneumoniae, CMC8431, 18 h, 35° C., read-out: MIC
Procedure, shortened: as §1

[6] = test system: Serratia marcescens VGH 84-30; settings: 35° C.
Procedure, shortened: as §1

[7] = test system: Staphylococcus aureus Smith; settings: 35° C.
Procedure, shortened: as §1

[8] = test system: Proteus rettgeri CMC 84-41; settings: 18 hours, 35° C.
Procedure, shortened: as §1

[9] = test system: Proteus rettgeri IO 83-21; settings: Providencia rettgeri, IO8321, 18 h, 35° C., read-out: MIC
Procedure, shortened: as §1

[10] = test system: Staphylococcus aureus VGH 84-47; settings: 35° C.
Procedure, shortened: as §1

[11] = test system: Klebsiella pneumoniae IO 83-5; settings: Klebsiella pneumoniae, IO835, 18 h, 35° C., read-out: MIC
Procedure, shortened: as §1

[12] = test system: Serratia marcescens K 84-18; settings: 18 hours, 35° C.
Procedure, shortened: as §1

[13] = test system: Escherichia coli CMC 84-50; settings: Escherichia coli, CMC8450, 18 h, 35° C., read-out: MIC
Procedure, shortened: as §1

[14] = test system: Morganella morganii VHG 84-12; settings: Morganella morganii, VHG8412, 18 h, Morganella morganii VHG 84-12 (VGH 84-12 for Example 131), 35° C., read-out: MIC
Procedure, shortened: as §1

[15] = test system: Staphylococcus aureus VGH 84-45; settings: 35° C.
Procedure, shortened: as §1

[16] = test system: Escherichia coli MOR 84-20; settings: Escherichia coli, MOR8420, 18 h, 35° C., read-out: MIC
Procedure, shortened: as §1

[17] = test system: Enterobacter cloacae VGH 84-39; settings: Enterobacter cloacae, VGH8439, 18 h, 35° C., read-out: MIC
Procedure, shortened: as §1

[18] = test system: Enterobacter cloacae K 84-10; settings: 35° C.
Procedure, shortened: as §1

[19] = test system: Pseudomonas aeruginosa CMC 83-20; settings: 35° C.
Procedure, shortened: as §1

[20] = test system: Streptococcus faecalis UCI 85-19; settings: 35° C.
Procedure, shortened: as §1

[21] = test system: Escherichia coli LL 311; settings: 35° C.
Procedure, shortened: as §1

[22] = test system: Citrobacter div. K 82-24; settings: 35° C.
Procedure, shortened: as §1

[23] = test system: Escherichia coli VGH 84-19; settings: Escherichia coli, VGH8419, 18 h, 35° C., read-out: MIC
Procedure, shortened: as §1

[24] = test system: Morganella morganii MOR 84-45; settings: Morganella morganii, MOR8445, 18 h, 35° C., read-out: MIC
Procedure, shortened: as §1

[25] = test system: Escherichia coli CMC 84-11; settings: 18 hours, 35° C.
Procedure, shortened: as §1

[26] = test system: Pseudomonas aeruginosa VGH 84-4; settings: 35° C.
Procedure, shortened: as §1

[27] = test system: Pseudomonas aeruginosa K 84-16; settings: Pseudomonas aeruginosa, K8416, 18 h, 35° C., read-out: MIC
Procedure, shortened: as §1

[28] = test system: Serratia marcescens CMC 83-74; settings: Serratia marcescens, CMC8374, 18 h, 35° C., read-out: MIC
Procedure, shortened: as §1

[29] = test system: Klebsiella pneumoniae MOR 84-24; settings: Klebsiella pneumoniae, MOR8424, 18 h, 35° C., read-out: MIC
Procedure, shortened: as §1

[30] = test system: Morganella morganii CMC 84-38; settings: 35° C.
Procedure, shortened: as §1

[31] = test system: Staphylococcus aureus K 82-26; settings: 35° C.
Procedure, shortened: as §1

[32] = test system: Streptococcus faecalis VGH 84-65; settings: 35° C.
Procedure, shortened: as §1

[33] = test system: Escherichia coli ATCC 25922; settings: 35° C.
Procedure, shortened: as §1

[34] = test system: Streptococcus faecalis CMC 83-120; settings: Enterococcus faecalis, CMC83120, 18 h, 35° C., read-out: MIC
Procedure, shortened: as §1

[35] = test system: Streptococcus faecalis UCI 85-30; settings: Enterococcus faecalis, UCI8530, 18 h, 35° C., read-out: MIC
Procedure, shortened: as §1

[36] = test system: Providencia stuarti CMC 83-3; settings: Providencia, CMC833, 18 h, 35° C., read-out: MIC
Procedure, shortened: as §1

[37] = test system: Serratia marcescens IO 83-63; settings: IO8363, 18 hours, 35° C.
Procedure, shortened: as §1

[38] = test system: Pseudomonas aeruginosa VGH 84-3; settings: Pseudomonas aeruginosa, VGH843, 18 h, 35° C., read-out: MIC
Procedure, shortened: as §1

[39] = test system: Streptococcus faecalis VGH 84-69; settings: Enterococcus faecalis, VGH8469, 18 h, 35° C., read-out: MIC
Procedure, shortened: as §1

[40] = test system: Morganella morganii CMC 84-37; settings: Morganella morganii, CMC8437, 18 h, 35° C., read-out: MIC
Procedure, shortened: as §1

[41] = test system: Staphylococcus aureus CMC 83-131; settings: Staphylococcus aureus, CMC83131, 18 h, 35° C., read-out: MIC
Procedure, shortened: as §1

[42] = Escherichia coli, ATCC25922, 18 h, read-out: MIC

O=C(O)c1cn(C2CC2)c2cc(N3CCNC(c4ccsc4)C3)c(F)cc2c1=O (centres unmarked) [Example 98, 1-Cyclopropyl-6-fluoro-1,4-dihydro-4-oxo-7-[3-(3-thienyl)-1-piperazinyl]-3-quinolinecarboxylic acid, monohydrochloride]
MIC [1]: 0.25 µg/mL | MIC ([2]; 18 hours, monohydrochloride): 0.12 µg/mL | MIC ([2]; Staphylococcus aureus, ATTC29213, 18 h, read-out: MIC): 0.06 µg/mL | MIC [3]: 1 µg/mL | MIC ([4]; Pseudomonas aeruginosa, LL1244, 18 h, read-out: MIC): 2 µg/mL | MIC [5]: 0.12 µg/mL | MIC ([6]; Serratia marcescens, VGH8430, 18 h, read-out: MIC): 4 µg/mL | MIC ([7]; 18 hours, monohydrochloride): 0.03 µg/mL | MIC ([8]; monohydrochloride): 0.12 µg/mL | MIC [9]: 0.5 µg/mL | MIC ([10]; Staphylococcus aureus, VGH8447, 18 h, read-out: MIC): 0.12 µg/mL | MIC [11]: 0.25 µg/mL | MIC ([12]; monohydrochloride): 0.25 µg/mL | MIC [13]: 0.12 µg/mL | MIC [14]: 0.25 µg/mL | MIC ([15]; 18 hours, monohydrochloride): 0.03 µg/mL | MIC [16]: 0.12 µg/mL | MIC [17]: 0.12 µg/mL | MIC ([18]; 18 hours, monohydrochloride): 0.06 µg/mL | MIC ([19]; Pseudomonas aeruginosa, CMC8320, 18 h, read-out: MIC): 4 µg/mL | MIC ([20]; Enterococcus faecalis, UCI8519, 18 h, read-out: MIC): 0.5 µg/mL | MIC ([21]; Escherichia coli, LL311, 18 h, read-out: MIC): 0.03 µg/mL | MIC ([22]; Citrobacter, DIV.K8224, 18 h, read-out: MIC): 0.12 µg/mL | MIC [23]: 0.12 µg/mL | MIC [24]: 0.12 µg/mL | MIC ([25]; monohydrochloride): 0.03 µg/mL | MIC ([26]; 18 hours, monohydrochloride): 2 µg/mL | MIC [27]: 4 µg/mL | MIC [28]: 8 µg/mL | MIC [29]: 0.25 µg/mL | MIC ([30]; Morganella morganii, CMC8438, 18 h, read-out: MIC): 0.12 µg/mL | MIC ([31]; Staphylococcus aureus, K8226, 18 h, read-out: MIC): 0.12 µg/mL | MIC ([32]; 18 hours, monohydrochloride): 0.5 µg/mL | MIC ([33]; 18 hours, monohydrochloride): 0.12 µg/mL | MIC [33, 42]: 0.06 µg/mL | MIC [34]: 1 µg/mL | MIC [35]: 1 µg/mL | MIC [36]: 8 µg/mL | MIC [37]: 1 µg/mL | MIC [38]: 16 µg/mL | MIC [39]: 0.5 µg/mL | MIC [40]: 0.06 µg/mL

O=C(O)c1cn(C2CC2)c2cc(N3CCNC(C4CC4)C3)c(F)cc2c1=O (centres unmarked) [Example 96, 7-(3-Cyclopropyl-1-piperazinyl) -1-cyclopropyl-6-fluoro-1,4-dihydro-4-oxo-3-quinolinecarboxylic acid]
MIC [1]: 0.06 µg/mL (≈ 0.162 µM) | MIC ([2]; 18 hours): 0.25 µg/mL (≈ 0.673 µM) | MIC [3]: 0.25 µg/mL (≈ 0.673 µM) | MIC ([4]; 18 hours): 1 µg/mL (≈ 2.69 µM) | MIC [5]: 0.015 µg/mL (≈ 0.0404 µM) | MIC ([6]; 18 hours): 1 µg/mL (≈ 2.69 µM) | MIC ([7]; Staphylococcus aureus, 18 h, read-out: MIC): 0.06 µg/mL (≈ 0.162 µM) | MIC [8]: 0.03 µg/mL (≈ 0.0808 µM) | MIC [9]: 0.12 µg/mL (≈ 0.323 µM) | MIC ([10]; 18 hours): 0.06 µg/mL (≈ 0.162 µM) | MIC [11]: 0.03 µg/mL (≈ 0.0808 µM) | MIC [12]: > 0.015 µg/mL | MIC [13]: 0.015 µg/mL (≈ 0.0404 µM) | MIC [14]: 0.12 µg/mL (≈ 0.323 µM) | MIC ([15]; Staphylococcus aureus, VGH8445, 18 h, read-out: MIC): 0.06 µg/mL (≈ 0.162 µM) | MIC [16]: 0.008 µg/mL (≈ 0.0215 µM) | MIC [17]: 0.015 µg/mL (≈ 0.0404 µM) | MIC ([18]; Enterobacter cloacae, K8410, 18 h, read-out: MIC): 0.015 µg/mL (≈ 0.0404 µM) | MIC ([19]; 18 hours): 1 µg/mL (≈ 2.69 µM) | MIC [41]: 0.25 µg/mL (≈ 0.673 µM) | MIC ([20]; 18 hours): 0.5 µg/mL (≈ 1.35 µM) | MIC ([21]; 18 hours): 0.03 µg/mL (≈ 0.0808 µM) | MIC ([22]; 18 hours): 0.008 µg/mL (≈ 0.0215 µM) | MIC [23]: 0.008 µg/mL (≈ 0.0215 µM) | MIC [24]: 0.008 µg/mL (≈ 0.0215 µM) | MIC [25]: > 0.015 µg/mL | MIC ([26]; Pseudomonas aeruginosa, VGH844, 18 h, read-out: MIC): 1 µg/mL (≈ 2.69 µM) | MIC [27]: 2 µg/mL (≈ 5.38 µM) | MIC [28]: 4 µg/mL (≈ 10.8 µM) | MIC [29]: 0.03 µg/mL (≈ 0.0808 µM) | MIC ([30]; 18 hours): 0.3 µg/mL (≈ 0.808 µM) | MIC ([31]; 18 hours): 0.25 µg/mL (≈ 0.673 µM) | MIC ([32]; Enterococcus faecalis, VGH8465, 18 h, read-out: MIC): 0.5 µg/mL (≈ 1.35 µM) | MIC [33, 42]: 0.015 µg/mL (≈ 0.0404 µM) | MIC [34]: 1 µg/mL (≈ 2.69 µM) | MIC [35]: 2 µg/mL (≈ 5.38 µM) | MIC [36]: 2 µg/mL (≈ 5.38 µM) | MIC [37]: 0.25 µg/mL (≈ 0.673 µM) | MIC [38]: 4 µg/mL (≈ 10.8 µM) | MIC [39]: 1 µg/mL (≈ 2.69 µM) | MIC [40]: 0.03 µg/mL (≈ 0.0808 µM)
